PMC10959927, “Platinum iodido drugs show potential anti-tumor activity, affecting cancer cell metabolism and inducing ROS and senescence in gastrointestinal cancer cells” (Communications Biology, 2024)
Values joined by “and” are separate entries in the source; they are usually repeats but may differ in a detail not shown here. Equal entries are not always repeated. Where two headings read alike, the source gives them in different places.

What was measured:
AGS cells [1] = experiment: SA-β-Gal histochemical staining; type: cell-based, human; conditions: Fig. S4A
Experimental: SA-β-Gal activity was measured following two different approaches. (i) AGS, MKN45 and PANC1 cells (5 × 10^4) were seeded in 24-multiwell dishes and incubated overnight. […] For flow cytometry cell senescence detection, cells were tripsinized, fixed for 15 min with PFA 4% and stained with the CellEvent Senescense Green Flow Cytometry Assay Kit (C10840, Invitrogen) according to manufacturer’s instructions. CellEvent Senescense Green Probe was used at a 1:500 dilution and fluorescence was detected using the filter (Ex488nm/Em530/30) BL1 with a 4-laser Attune NxT Acoustic Cytometer (Thermo Fisher Scientific). […] After 3 h, the treatments were removed, new supplemented medium was added, and cells were incubated for an additional 24 h. Finally, SA-β-Gal staining was performed using the Senescence Cells Histochemical Staining Kit (CS0030-1KT) according to the manufacturer’s instructions.

PANC1 cells [2] = experiment: RT-qPCR gene expression (CDKN1A, IL6, MMP1, MAP2K3, SOD1, SOD2, CAT, MKI67, TNFRSF10D); type: cell-based, human
Experimental: (§1) Total cellular RNA was extracted using Tri-Reagent (Life Technologies), following the manufacturer’s instructions. One μg of total RNA was primed with random primers and cDNA synthesized with an M-MLV reverse transcriptase following the manufacturer’s instructions (Promega). Target genes were amplified using a SYBR Green polymerase chain reaction assay, working with the specific primer sets listed in Table 4.
(§2) Thermal cycling of the qPCR reaction was initiated with a denaturation step at 95 °C for 10 min. The process consisted of 40 cycles (denaturation at 95 °C for 15 sec, annealing at 60 °C for 30 sec, and elongation at 75 °C for 30 sec). PCR amplifications were carried out in a StepOne Real‐time PCR System (Applied Biosystems, 4376357). Relative mRNA levels were calculated by the delta-Ct method (2-ΔΔCt), where each 1-Ct difference equals a two-fold change in transcript abundance, using GAPDH as an endogenous gene reference. ΔΔCT represents the difference between the mean ΔCT value of the cells tested and the mean ΔCT value of the calibrator, both calculated for the same PCR run.

MKN45 cells [3] = experiment: as above; type: cell-based, human
Experimental: as §1, §2

AGS cells [4] = experiment: as above; type: cell-based, human
Experimental: as §1, §2

PANC1 cells [5] = experiment: Cell viability, crystal violet staining; conditions: read-out: IC50 concentration (± SD) at 48 h, 48 h
Experimental: (§3) Cell viability was assessed using a crystal violet-based staining method. […] The cells (2 × 10^5) were seeded in 24-multiwell dishes in 0.5 mL of complete medium and incubated overnight. […] After 48 h, cells were fixed with 1% glutaraldehyde (20–30 min), washed with distilled water, and stained with 0.1% crystal violet. […] IC50 were calculated by using GraphPad Prism (version 8.0). Nonlinear regression was used to fit the data to the log (inhibitor) versus response (variable slope).

MKN45 cells [6] = experiment: Cell viability, crystal violet staining; conditions: read-out: IC50 concentration (± SD) at 48 h, 48 h
Experimental: as §3

AGS cells [7] = experiment: Cell viability, crystal violet staining; conditions: read-out: IC50 concentration (± SD) at 48 h, AGS, 48 h
Experimental: as §3

[8] = tested on: telomeres, 36B4, MT-COX1, MT-CYB DNA of PANC1 cells; experiment: Oxidized bases (FPG-sensitive lesions) in genome regions by qPCR; type: cell-based, human; conditions: PANC1, IC50 concentration 24 h, normalized to control, single replicates
Description: (§4) Total cellular DNA from MKN45 and PANC1 cells was extracted using an NZY Tissue gDNA Isolation Kit (Nzytech, MB13503) following the manufacturer’s instructions and quantified using a Nanodrop (Nanodrop Spectrophotometer ND-1000, ThermoFisher Scientific, Wilmington, DE, USA). We adapted the procedure described by O’Callaghan et al.[76] to measure oxidative DNA damage at telomeres, 36B4 genomic region and at mitochondrial DNA (MT-COX1, MT-CYB). This is a qPCR method based on differences in PCR kinetics between DNA template digested by Formamidopyrimidine DNA Glycosylase (FPG, Cat no. M0240S) and undigested DNA. This enzyme recognizes and cuts 8-oxoguanine, producing apurinic sites that are converted into single-strand breaks by its apurinic sites lyase activity. These single-strand breaks inhibit the PCR, thus, the ΔCT after digesting DNA by […] (Ct digested–Ct undigested) is proportional to the oxidative damage in the amplified region. DNA was incubated with 8 Units of FPG during 3 h in FPG buffer (NEB1, M0240S). The reaction was stopped by incubation at 95 °C for 5 min. qPCR analysis was performed on 40 ng of digested or undigested genomic DNA. Each qPCR was performed in triplicate including no-template controls in a StepOne Real‐time PCR System (Applied Biosystems, 4376357). Target genes (Table 3) were amplified using SYBR Green (Applied Biosystems, MB345). Thermal cycling of the qPCR reaction was initiated with a denaturation step at 95 °C for 10 min. The process consisted of 40 cycles (denaturation at 95 °C for 15 sec, annealing at 60 °C for 30 sec, and elongation at 72 °C for 30 sec). This experiment was repeated three independent times with 10–12 replicates.

[9] = tested on: telomeres, 36B4, MT-COX1, MT-CYB DNA of MKN45 cells; experiment: as above; type: cell-based, human; conditions: MKN45, IC50 concentration 24 h, normalized to control, single replicates
Description: as §4

[10] = PANC1, Fig. 3C, replicate values
[11] = MKN45, Fig. 3C, replicate values

[NH2][Pt]([NH2])([Cl])[Cl] [CDDP, cisplatin, reference compound]
Fold change % Senescence (AGS cells [1]): 58.33% and 50% and 67.21% | MKI67 Fold change vs GAPDH (PANC1 cells [2]; PANC1, Fig. S4C): 0.584 fold change and 0.4541 fold change and 0.7511 fold change | TNFRSF10D Fold change vs GAPDH (PANC1 cells [2]; PANC1, Fig. S4C): 2.899 fold change and 2.5476 fold change and 3.299 fold change | CAT (Fold change vs GAPDH) (PANC1 cells [2]; PANC1, mRNA vs Control = 1): 0.9643 Fold change and 0.7898 Fold change and 1.177 Fold change | SOD1 (Fold change vs GAPDH) (PANC1 cells [2]; PANC1, mRNA vs Control = 1): 1.201 Fold change and 1.761 Fold change and 1.789 Fold change | SOD2 (Fold change vs GAPDH) (PANC1 cells [2]; PANC1, mRNA vs Control = 1): 0.4267 Fold change and 0.395 Fold change and 0.4609 Fold change | CDKN1A, Fold change vs GAPDH (PANC1 cells [2]; [10]): 2.689 fold change and 2.397 fold change and 3.018 fold change | IL-6, Fold change vs GAPDH (PANC1 cells [2]; [10]): 6.723 fold change and 5.78 fold change and 7.821 fold change | MMP-1, Fold change vs GAPDH (PANC1 cells [2]; [10]): 3.584 fold change and 2.804 fold change and 4.175 fold change | Fold change MAP2K3 vs GAPDH (PANC1 cells [2]; PANC1, Fig. 4B, replicate values): 2.138 fold change and 1.804 fold change and 2.534 fold change | MKI67 Fold change vs GAPDH (MKN45 cells [3]; MKN45, Fig. S4C): 0.592 fold change and 0.4427 fold change and 0.7916 fold change | TNFRSF10D Fold change vs GAPDH (MKN45 cells [3]; MKN45, Fig. S4C): 0.5932 fold change and 0.4461 fold change and 0.7888 fold change | CAT (Fold change vs GAPDH) (MKN45 cells [3]; MKN45, mRNA vs Control = 1): 1.496 Fold change and 1.261 Fold change and 1.775 Fold change | SOD1 (Fold change vs GAPDH) (MKN45 cells [3]; MKN45, mRNA vs Control = 1): 1.684 Fold change and 1.471 Fold change and 1.928 Fold change | SOD2 (Fold change vs GAPDH) (MKN45 cells [3]; MKN45, mRNA vs Control = 1): 5.8142 Fold change and 4.057 Fold change and 3.7805 Fold change | CDKN1A, Fold change vs GAPDH (MKN45 cells [3]; [11]): 4.774 fold change and 4.07 fold change and 5.599 fold change | IL-6, Fold change vs GAPDH (MKN45 cells [3]; [11]): 1.95 fold change and 3.642 fold change and 4.704 fold change | MMP-1, Fold change vs GAPDH (MKN45 cells [3]; [11]): 3.347 fold change and 2.194 fold change and 5.104 fold change | Fold change MAP2K3 vs GAPDH (MKN45 cells [3]; MKN45, Fig. 4B, replicate values): 2.858 fold change and 2.103 fold change and 3.884 fold change | CDKN1A, Fold change vs GAPDH (AGS cells [4]; Fig. 3C, replicate values): 19.195 fold change and 16.0881 fold change and 22.9019 fold change | IL-6, Fold change vs GAPDH (AGS cells [4]; Fig. 3C, replicate values): 0.7415 fold change and 0.5536 fold change and 0.449 fold change | MMP-1, Fold change vs GAPDH (AGS cells [4]; Fig. 3C, replicate values): 4.748 fold change and 3.523 fold change and 6.399 fold change | Fold change MAP2K3 vs GAPDH (AGS cells [4]; Fig. 4B, replicate values): 3.776 fold change and 3.2606 fold change and 4.374 fold change | TNFRSF10D Fold change vs GAPDH (AGS cells [4]; Fig. S4C): 10.7682 fold change and 9.829 fold change and 11.7968 fold change | CAT (Fold change vs GAPDH) (AGS cells [4]; mRNA vs Control = 1): 0.4339 Fold change and 0.4032 Fold change and 0.467 Fold change | SOD1 (Fold change vs GAPDH) (AGS cells [4]; mRNA vs Control = 1): 1.248 Fold change and 1.114 Fold change and 1.397 Fold change | SOD2 (Fold change vs GAPDH) (AGS cells [4]; mRNA vs Control = 1): 1.83 Fold change and 1.608 Fold change and 2.083 Fold change | IC50 (PANC1 cells [5]; PANC1, NAC (+) 0.5 mM): 9.46 ± 1.29 µM | IC50 (PANC1 cells [5]; PANC1, NAC (-)): 10 µM and 12.3 µM | IC50 (MKN45 cells [6]; MKN45, NAC (+) 0.5 mM): 10.2 ± 1.56 µM | IC50 (MKN45 cells [6]; MKN45, NAC (-)): 10 µM and 9.45 µM | IC50 (AGS cells [7]; NAC (+) 0.5 mM): 22.7 ± 4.03 µM | IC50 (AGS cells [7]; NAC (-)): 26.7 ± 2.21 µM | TEL (Fold change - ΔCt TEL), oxidative DNA damage ([8]; FPG-digested vs undigested): 4.038 and 4.138 and 5.415 and 0.6214 and 0.3967 and 0.9429 and 1.679 and 1.417 and 1.6318 and 1.586 | 36B4 (Fold change - ΔCt 36B4), oxidative DNA damage [8]: 1.144 and 1.346 and 0.8021 and 1.678 and 2.371 and 2.867 and 3.452 and 2.312 and 2.5645 | MT-COX1 (Fold change - ΔCt MT-COX1), oxidative DNA damage [8]: 1.1557 and 1.18 and 1.253 and 1.195 and 2.153 and 0.9478 and 1.587 and 1.014 and 1.075 and 1.118 | MT-CYB (Fold change - ΔCt MT-CYB), oxidative DNA damage [8]: 1.618 and 1.296 and 1.304 and 1.472 and 1.131 and 1.532 and 1.619 and 1.965 and 6.543 and 5.482 and 6.158 and 5.629 | TEL (Fold change - ΔCt TEL), oxidative DNA damage ([9]; FPG-digested vs undigested): 2.134 and 3.241 and 3.532 and 0.2864 and 0.7917 and 1.101 and 0.9693 and 0.9768 and 0.981 and 0.9672 | 36B4 (Fold change - ΔCt 36B4), oxidative DNA damage [9]: 0.8255 and 0.8326 and 1.095 and 1.237 and 1.611 and 1.72 and 2.271 and 2.214 and 1.327 and 2.203 | MT-COX1 (Fold change - ΔCt MT-COX1), oxidative DNA damage [9]: 1.028 and 1.042 and 1.044 and 1.141 and 0.8202 and 0.6032 and 2.316 and 2.623 and 3.028 | MT-CYB (Fold change - ΔCt MT-CYB), oxidative DNA damage [9]: 1.38 and 1.409 and 1.605 and 1.1947 and 1.217 and 1.312 and 1.3882 and 2.275 and 1.316 and 2.313
